According to US9234006B2, “Compounds” (Novacta Biosystems Limited, priority 2011, dated 2016):
Structures can show the parent of a compound that is named as a salt. Blank lines part the entries; values can stand above or below the molecule they belong to. Where a SMILES comes first, the peptide text is derived from it. Bridges are numbered along the chain shown (N, C = ends). [ ]: non-standard residue; d: D form. The star is where a group is joined. ξ: configuration not given here. ξβ3hGly(cHex) = NC(CC(=O)*)C1CCCCC1; Thr(3ξ) = CC(O)[C@H](N)C(=O)O; Dab = NCC[C@H](N)C(=O)O; Ahp = NCCCCCCC(=O)O

Key:
E. coli ATCC25922 = experiment: MIC susceptibility testing, broth microdilution in CaMHB; type: cell-based, Escherichia coli
How it was run: (§1)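 Assays used cation-adjusted Mueller-Hinton broth, run in duplicate. Bacteria were taken from an overnight culture (37° C, 250 rpm, 18-20 hours), diluted 100-fold, grown to OD600 0.2-0.3, then diluted 100-fold again for inoculation.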

E. coli ATCC700928 = experiment: as above; type: cell-based, Escherichia coli
How it was run: as §1

E. coli NCTC12900 = experiment: as above; type: cell-based, Escherichia coli
How it was run: as §1

E. coli NCTC9001 = experiment: as above; type: cell-based, Escherichia coli; conditions: Table 4A, different batches of cation-adjusted Muller-Hinton broth
How it was run: as §1

P. aeruginosa ATCC 9721 = experiment: as above; type: cell-based, Pseudomonas aeruginosa
How it was run: as §1

P. aeruginosa ATCC10145 = experiment: as above; type: cell-based, Pseudomonas aeruginosa
How it was run: as §1

P. aeruginosa ATCC27853 = experiment: as above; type: cell-based, Pseudomonas aeruginosa
How it was run: as §1

[1] = tested on: P. aeruginosa ATCCCRM-9027; experiment: as above; type: cell-based, Pseudomonas aeruginosa
How it was run: as §1

K. pneumoniae ATCC 4352 = experiment: as above; type: cell-based, Klebsiella pneumoniae
How it was run: as §1

[2] = tested on: K. pneumoniae ATCCBAA-1706; experiment: as above; type: cell-based, Klebsiella pneumoniae; conditions: Table 4
How it was run: as §1

K. pneumoniae NCTC7427 = experiment: as above; type: cell-based, Klebsiella pneumoniae
How it was run: as §1

K. pneumoniae NCTC8172 = experiment: as above; type: cell-based, Klebsiella pneumoniae
How it was run: as §1

A. baumannii ATCC19606 = experiment: as above; type: cell-based, Acinetobacter baumannii
How it was run: as §1

A. baumannii ATCCBAA-747 = experiment: as above; type: cell-based, Acinetobacter baumannii
How it was run: as §1

A. baumannii NCTC13423 = experiment: as above; type: cell-based, Acinetobacter baumannii
How it was run: as §1

A. baumannii NCTC7844 = experiment: as above; type: cell-based, Acinetobacter baumannii
How it was run: as §1

[3] = set-up: species or system rats; conditions: rat, in vivo, 8 mg/kg
Protocol: Colistin and the example compounds were prepared in saline. Compounds were introduced via the jugular canula twice a day 7 hours apart for seven days. […] The dose regimen is set out in Table 8 below.

HK-2 cell line = conditions: 24 h incubation, resazurin reduction; Table 7A; footnote c: solubility issues noted at top concentration
Protocol: The renal cell toxicity of the compounds was assessed in an in vitro assay using the HK-2 cell line, an immortalized proximal tubule cell line derived from a normal human kidney. The endpoint to describe the toxicity of the compounds was the reduction of resazurin correlating with the metabolic activity of the cells.
Cells were cultured in 150 cm^2 flasks in 25 mL supplemented KSF (with 5 ng/mL EGF and 50 μg/mL BPE). Cells were maintained at 70% confluence with a maximum of 25 passages. Day 1: Media was removed and cells were washed with 10 ml DPBS. […] After 1 to 2 minutes incubation, 14 ml media was added to the flask to inactivate the trypsin. The cell suspension was transferred to a centrifuge tube and the cells pelleted at 1000 rpm for 6 minutes. The cell pellet was then resuspended in fresh media supplemented with EGF and BPE. […] 7500 cells were dispensed in each well in a volume of 160 μl and incubated at 37° C. for 24 h.
Day 2: Test compounds were prepared directly into the media. […] The microtiter plates were removed from the incubator and the media replaced with 100 μl of the dilutions of the compound solution. Every set of concentration was done in triplicate, and positive and negative controls were added to each plate. The plates were then incubated for 24 h at 37° C. with 5% CO2 in a humidified atmosphere.
Day 3: The reagent containing the resazurin (CellTiter-Blue, Promega) was diluted in PBS (1:4) and added at 20% (v/v) to each well. The plates were then incubated at 37° C. for 2 h before the fluorescent reduction product was detected.
Media only background values were subtracted before the data was analysed using GraphPad Prism. Compound concentration values were plotted as log values to enable a dose-response curve to be fitted and IC50 values determined (Table 7).
The renal cell toxicity of the additional example compounds was assessed in an in vitro assay using the HK-2 cell as described in the example above.

[4] = Table 4A, different batches of cation-adjusted Muller-Hinton broth
[5] = K. pneumoniae ATCC4352, Table 4A, different batches of cation-adjusted Muller-Hinton broth

Structure (SMILES): CC(C)C[C@@H]1NC(=O)[C@@H](Cc2ccccc2)NC(=O)[C@H](CCN)NC(=O)[C@@H](NC(=O)[C@H](CCN)NC(=O)[C@@H](NC(=O)CC(N)C2CCCCC2)C(C)O)CCNC(=O)[C@H](C(C)O)NC(=O)[C@H](CCN)NC(=O)[C@H](CCN)NC1=O (stereo partly drawn) [Example 14, [3(R,S)-3-Amino-3-cyclohexanepropanoyl] Polymyxin B Nonapeptide, Sulphate Salt] ({ξβ3hGly(cHex)}-[Thr(3ξ)][Dab][Dab][Dab][dF]L[Dab][Dab][Thr(3ξ)]; lactam 3-C)
MIC (E. coli ATCC25922; Table 4): 0.5 micrograms/mL | MIC (E. coli ATCC25922; [4]): 2 micrograms/mL | MIC (E. coli ATCC700928; Table 4): 0.25 micrograms/mL | MIC (E. coli ATCC700928; [4]): 2 micrograms/mL | MIC (E. coli NCTC12900; Table 4): 0.5 micrograms/mL | MIC (E. coli NCTC12900; [4]): 4 micrograms/mL | MIC (E. coli NCTC9001): 4 micrograms/mL | MIC (P. aeruginosa ATCC 9721; P. aeruginosa ATCC 9721, Table 4): 0.25 micrograms/mL | MIC (P. aeruginosa ATCC 9721; P. aeruginosa ATCC9721, Table 4A, different batches of cation-adjusted Muller-Hinton broth): 0.25 micrograms/mL | MIC (P. aeruginosa ATCC10145; Table 4): 0.25 micrograms/mL | MIC (P. aeruginosa ATCC10145; [4]): 0.5 micrograms/mL | MIC (P. aeruginosa ATCC27853; Table 4): 0.5 micrograms/mL | MIC (P. aeruginosa ATCC27853; [4]): 0.25 micrograms/mL | MIC ([1]; P. aeruginosa AATCCRM 9027, Table 4A, different batches of cation-adjusted Muller-Hinton broth): 0.125 micrograms/mL | MIC ([1]; P. aeruginosa ATCCCRM-9027, Table 4): 0.25 micrograms/mL | MIC (K. pneumoniae ATCC 4352; K. pneumoniae ATCC 4352, Table 4): 1 micrograms/mL | MIC (K. pneumoniae ATCC 4352; [5]): 0.5 micrograms/mL | MIC [2]: 0.25 micrograms/mL | MIC (K. pneumoniae NCTC7427; Table 4): 0.25 micrograms/mL | MIC (K. pneumoniae NCTC7427; [4]): 0.5 micrograms/mL | MIC (K. pneumoniae NCTC8172; Table 4): 1 micrograms/mL | MIC (K. pneumoniae NCTC8172; [4]): >32 micrograms/mL | MIC (A. baumannii ATCC19606; Table 4): 0.5 micrograms/mL | MIC (A. baumannii ATCCBAA-747; Table 4): 0.5 micrograms/mL | MIC (A. baumannii ATCCBAA-747; [4]): 0.5 micrograms/mL | MIC (A. baumannii NCTC13423; Table 4): 0.06 micrograms/mL | MIC (A. baumannii NCTC13423; [4]): 0.125 micrograms/mL | MIC (A. baumannii NCTC7844; Table 4): 0.5 micrograms/mL | MIC (A. baumannii NCTC7844; [4]): 0.5 micrograms/mL | levels of the renal biomarker NAG in urine compared to Colistin at the same dose regimen [3]: significantly reduced levels | levels of the renal biomarker albumin in urine compared to Colistin at the same dose regimen [3]: significantly reduced levels | levels of the renal biomarker cystatin C in urine compared to Colistin at the same dose regimen [3]: significantly reduced levels

MIC (E. coli ATCC25922; [4]): 1 micrograms/mL | MIC (P. aeruginosa ATCC27853; [4]): 0.25 micrograms/mL | MIC (K. pneumoniae ATCC 4352; [5]): 2 micrograms/mL | MIC (A. baumannii ATCC19606; [4]): 16 micrograms/mL
Structure (SMILES): CC(C)C[C@@H]1NC(=O)[C@@H](Cc2ccccc2)NC(=O)[C@H](CCN)NC(=O)[C@@H](NC(=O)[C@H](CCN)NC(=O)[C@@H](NC(=O)CCCCCCN)C(C)O)CCNC(=O)[C@H](C(C)O)NC(=O)[C@H](CCN)NC(=O)[C@H](CCN)NC1=O (stereo partly shown) [Example 19, 7-Aminoheptanoyl polymyxin B nonapeptide] (H-[Ahp][Thr(3ξ)][Dab][Dab][Dab][dF]L[Dab][Dab][Thr(3ξ)]; lactam 4-C)
IC50 HK-2 cells (HK-2 cell line): 157^c μg/mL
